PMC5218480 (PLoS ONE, 2017)

Test system: MV-4-11 cells
Test: Gene expression microarray analysis (Affymetrix PrimeView) and GSEA
Assay type: cell-based, human
Design: RFU PODN (11730768_x_at) / Fold change /veh PODN (11730768_x_at) / RFU LINC00158 (11744669_a_at) / Fold change /veh LINC00158 (11744669_a_at) / RFU DUSP10 (11751237_a_at) / Fold change /veh DUSP10 (11751237_a_at) / RFU ID3 (11757404_x_at) / Fold change /veh ID3 (11757404_x_at) / RFU PLEKHG5 (11737974_s_at) / Fold change /veh PLEKHG5 (11737974_s_at) / RFU LRRC4B (11730491_at) / Fold change /veh LRRC4B (11730491_at) / RFU GIMAP4 (11747438_a_at) / Fold change /veh GIMAP4 (11747438_a_at) / RFU KRT8 (11758183_x_at) / Fold change /veh KRT8 (11758183_x_at) / RFU CNN1 (11734310_a_at) / Fold change /veh CNN1 (11734310_a_at) / RFU VPS37D (11726825_at) / Fold change /veh VPS37D (11726825_at) / RFU C10orf10 (11716522_x_at) / Fold change /veh C10orf10 (11716522_x_at) / RFU KIR2DL2 /// KIR2DL4 /// KIR2DL5A /// KIR2DL5B /// KIR2DS1 /// KIR2DS2 /// KIR2DS3 /// KIR2DS4 /// KIR3DL3 /// KIR3DL3 /// KIR3DS1 (11738374_at) / Fold change /veh KIR2DL2 /// KIR2DL4 /// KIR2DL5A /// KIR2DL5B /// KIR2DS1 /// KIR2DS2 /// KIR2DS3 /// KIR2DS4 /// KIR3DL3 /// KIR3DL3 /// KIR3DS1 (11738374_at) / RFU C1QL1 (11718748_at) / Fold change /veh C1QL1 (11718748_at) / RFU TMPRSS4 (11747572_a_at) / Fold change /veh TMPRSS4 (11747572_a_at) / RFU HAMP (11756126_x_at) / Fold change /veh HAMP (11756126_x_at) / RFU RNFT2 (11725882_a_at) / Fold change /veh RNFT2 (11725882_a_at) / RFU NR4A2 (11747474_a_at) / Fold change /veh NR4A2 (11747474_a_at) / RFU ABCC12 (11746883_a_at) / Fold change /veh ABCC12 (11746883_a_at) / RFU TMEM136 (11760407_x_at) / Fold change /veh TMEM136 (11760407_x_at) / RFU CLDN22 /// WWC2 (11732394_at) / Fold change /veh CLDN22 /// WWC2 (11732394_at) / RFU HLA-DPB1 (11760878_x_at) / Fold change /veh HLA-DPB1 (11760878_x_at) / RFU SPINT1 (11716480_a_at) / Fold change /veh SPINT1 (11716480_a_at) / RFU GAP43 (11754022_s_at) / Fold change /veh GAP43 (11754022_s_at) / RFU A4GNT (11735810_at) / Fold change /veh A4GNT (11735810_at) / RFU PRB3 (11715151_x_at) / Fold change /veh PRB3 (11715151_x_at) / RFU TUBB4B (11761932_at) / Fold change /veh TUBB4B (11761932_at) / RFU CAPN14 (11732068_a_at) / Fold change /veh CAPN14 (11732068_a_at) / RFU TMCC2 (11721928_a_at) / Fold change /veh TMCC2 (11721928_a_at) / RFU IRGQ (11745062_a_at) / Fold change /veh IRGQ (11745062_a_at) / RFU FAM174B (11720279_a_at) / Fold change /veh FAM174B (11720279_a_at) / RFU TMPRSS4 (11748680_a_at) / Fold change /veh TMPRSS4 (11748680_a_at) / RFU FAM212B (11763350_a_at) / Fold change /veh FAM212B (11763350_a_at) / RFU PLEKHG5 (11743358_a_at) / Fold change /veh PLEKHG5 (11743358_a_at) / RFU ZSCAN30 (11745921_a_at) / Fold change /veh ZSCAN30 (11745921_a_at) / RFU CMKLR1 (11741424_a_at) / Fold change /veh CMKLR1 (11741424_a_at) / RFU LOC101060620 /// MAPK8IP1 (11723275_at) / Fold change /veh LOC101060620 /// MAPK8IP1 (11723275_at) / RFU SPTSSB (11747773_x_at) / Fold change /veh SPTSSB (11747773_x_at) / RFU PRSS12 (11739890_at) / Fold change /veh PRSS12 (11739890_at) / RFU BIN1 (11741810_x_at) / Fold change /veh BIN1 (11741810_x_at) / RFU WNT11 (11732464_a_at) / Fold change /veh WNT11 (11732464_a_at) / RFU C10orf10 (11716521_a_at) / Fold change /veh C10orf10 (11716521_a_at) / RFU C5orf56 (11738089_at) / Fold change /veh C5orf56 (11738089_at) / RFU CYB561 (11721691_x_at) / Fold change /veh CYB561 (11721691_x_at) / RFU ANKRD19P (11752326_a_at) / Fold change /veh ANKRD19P (11752326_a_at) / RFU OR2T12 /// OR2T33 /// OR2T8 (11738714_s_at) / Fold change /veh OR2T12 /// OR2T33 /// OR2T8 (11738714_s_at) / RFU VCAN (11748164_a_at) / Fold change /veh VCAN (11748164_a_at) / RFU JSRP1 (11732532_at) / Fold change /veh JSRP1 (11732532_at) / RFU KRTAP10-11 (11738290_x_at) / Fold change /veh KRTAP10-11 (11738290_x_at) / RFU MYO3A (11730013_a_at) / Fold change /veh MYO3A (11730013_a_at) / RFU EBF3 (11725865_a_at) / Fold change /veh EBF3 (11725865_a_at) / RFU CAMK2N1 (11719241_x_at) / Fold change /veh CAMK2N1 (11719241_x_at) / RFU C5orf56 (11738088_a_at) / Fold change /veh C5orf56 (11738088_a_at) / RFU OLFML3 (11715873_a_at) / Fold change /veh OLFML3 (11715873_a_at) / RFU LOC100653217 /// NTM (11731650_a_at) / Fold change /veh LOC100653217 /// NTM (11731650_a_at) / RFU MAPK11 (11762145_a_at) / Fold change /veh MAPK11 (11762145_a_at) / RFU FIZ1 (11724087_x_at) / Fold change /veh FIZ1 (11724087_x_at) / RFU OASL (11726364_x_at) / Fold change /veh OASL (11726364_x_at) / RFU SOX15 (11748057_x_at) / Fold change /veh SOX15 (11748057_x_at) / RFU CD79A (11719716_a_at) / Fold change /veh CD79A (11719716_a_at) / RFU HIST1H1D (11736915_at) / Fold change /veh HIST1H1D (11736915_at) / RFU CASKIN2 (11723855_a_at) / Fold change /veh CASKIN2 (11723855_a_at) / RFU LOC730098 (11760151_x_at) / Fold change /veh LOC730098 (11760151_x_at) / RFU OR4N2 (11742367_at) / Fold change /veh OR4N2 (11742367_at) / RFU PRRT2 (11749266_a_at) / Fold change /veh PRRT2 (11749266_a_at) / RFU SNX32 (11753110_a_at) / Fold change /veh SNX32 (11753110_a_at) / RFU CDHR5 (11726645_a_at) / Fold change /veh CDHR5 (11726645_a_at) / RFU RCAN1 (11760418_a_at) / Fold change /veh RCAN1 (11760418_a_at) / RFU FAM167A (11723789_a_at) / Fold change /veh FAM167A (11723789_a_at) / RFU FAM26E (11764081_at) / Fold change /veh FAM26E (11764081_at) / RFU ISYNA1 (11749810_s_at) / Fold change /veh ISYNA1 (11749810_s_at) / RFU ACY1 (11761880_at) / Fold change /veh ACY1 (11761880_at) / RFU 11764098_at / Fold change /veh 11764098_at / RFU SAMD14 (11745864_x_at) / Fold change /veh SAMD14 (11745864_x_at) / RFU NPB (11741838_a_at) / Fold change /veh NPB (11741838_a_at) / RFU TMPRSS6 (11731388_a_at) / Fold change /veh TMPRSS6 (11731388_a_at) / RFU KRTAP10-2 (11738614_at) / Fold change /veh KRTAP10-2 (11738614_at) / RFU ARHGAP8 /// PRR5-ARHGAP8 (11727945_x_at) / Fold change /veh ARHGAP8 /// PRR5-ARHGAP8 (11727945_x_at) / RFU KRTAP5-7 /// NADSYN1 (11734609_at) / Fold change /veh KRTAP5-7 /// NADSYN1 (11734609_at) / RFU RASL12 (11751679_a_at) / Fold change /veh RASL12 (11751679_a_at) / RFU CDKN2B (11736163_a_at) / Fold change /veh CDKN2B (11736163_a_at) / RFU PRF1 (11729649_at) / Fold change /veh PRF1 (11729649_at) / RFU, ZNF638 /// ZNF638-IT1 / Fold change vs veh, ZNF638 /// ZNF638-IT1 / RFU, PANK3 / Fold change vs veh, PANK3 / RFU, SH3YL1 / Fold change vs veh, SH3YL1 / RFU, ZEB2 / Fold change vs veh, ZEB2 / RFU, NRIP1 / Fold change vs veh, NRIP1 / RFU, PTTG1IP / Fold change vs veh, PTTG1IP / RFU, CAPN2 / Fold change vs veh, CAPN2 / RFU, MED14 / Fold change vs veh, MED14 / RFU, SNORA58 / Fold change vs veh, SNORA58 / RFU, C1orf63 / Fold change vs veh, C1orf63 / RFU, LRRFIP1 / Fold change vs veh, LRRFIP1 / RFU, NDUFAF7 / Fold change vs veh, NDUFAF7 / RFU, SLC12A2 / Fold change vs veh, SLC12A2 / RFU, IBTK / Fold change vs veh, IBTK / RFU, ESF1 / Fold change vs veh, ESF1 / Fold change vs veh, TMEM50B / RFU, TAOK1 / Fold change vs veh, TAOK1 / RFU, ACBD3 / Fold change vs veh, ACBD3 / RFU, TMA16 / Fold change vs veh, TMA16 / RFU, RWDD3 / Fold change vs veh, RWDD3 / RFU, BCAT1 / Fold change vs veh, BCAT1 / RFU, EDEM3 / Fold change vs veh, EDEM3 / RFU, TMEM33 / Fold change vs veh, TMEM33 / RFU, WDR75 / Fold change vs veh, WDR75 / RFU, AHCTF1 / Fold change vs veh, AHCTF1 / RFU, TFRC / Fold change vs veh, TFRC / RFU, ZDHHC17 / Fold change vs veh, ZDHHC17 / RFU, NOM1 / Fold change vs veh, NOM1 / RFU, ARL8B / Fold change vs veh, ARL8B / RFU, ZBTB11 / Fold change vs veh, ZBTB11 / RFU, TAMM41 / Fold change vs veh, TAMM41 / RFU, KIAA1704 /// LOC100996395 / Fold change vs veh, KIAA1704 /// LOC100996395 / RFU, ING1 / Fold change vs veh, ING1 / RFU, TRMT61B / Fold change vs veh, TRMT61B / RFU, FUBP3 / Fold change vs veh, FUBP3 / RFU, TP53 / Fold change vs veh, TP53 / RFU, TNKS2 / Fold change vs veh, TNKS2 / RFU, ZFP14 / Fold change vs veh, ZFP14 / RFU, ACTR2 / Fold change vs veh, ACTR2 / RFU, PPP3R1 / Fold change vs veh, PPP3R1 / RFU, PIK3R1 / Fold change vs veh, PIK3R1 / RFU, HNRNPA1 / Fold change vs veh, HNRNPA1 / RFU, RNF170 / Fold change vs veh, RNF170 / RFU, ZNF28 / Fold change vs veh, ZNF28 / RFU, RNGTT / Fold change vs veh, RNGTT / RFU, OGT / Fold change vs veh, OGT / RFU, BRD1 / Fold change vs veh, BRD1 / RFU, MARS / Fold change vs veh, MARS / RFU, ZNF655 / Fold change vs veh, ZNF655 / RFU, FAHD1 / Fold change vs veh, FAHD1 / RFU, BDP1 / Fold change vs veh, BDP1 / RFU, LRRCC1 / Fold change vs veh, LRRCC1 / RFU, ARID1A / Fold change vs veh, ARID1A / RFU, ZNF146 / Fold change vs veh, ZNF146 / RFU, ZNF330 / Fold change vs veh, ZNF330 / RFU, GPN3 / Fold change vs veh, GPN3 / RFU, C9orf123 / Fold change vs veh, C9orf123 / RFU, N4BP2L2 / Fold change vs veh, N4BP2L2 / RFU, ARFIP1 / Fold change vs veh, ARFIP1 / RFU, FAM179B / Fold change vs veh, FAM179B / RFU, BCL10 / Fold change vs veh, BCL10 / RFU, UHRF1BP1L / Fold change vs veh, UHRF1BP1L / RFU, BET1 / Fold change vs veh, BET1 / RFU, CNOT2 / Fold change vs veh, CNOT2 / RFU, ZNF268 / Fold change vs veh, ZNF268 / Fold change vs veh, ZNF507 / RFU, DGCR2 / Fold change vs veh, DGCR2 / RFU, WDSUB1 / Fold change vs veh, WDSUB1 / Fold change vs veh, HSP90B1 /// MIR3652 / RFU, ADSS / Fold change vs veh, ADSS / RFU, GK / Fold change vs veh, GK / RFU, ZNF148 / Fold change vs veh, ZNF148 / RFU, TAF9 / Fold change vs veh, TAF9 / RFU, SLC1A5 / Fold change vs veh, SLC1A5 / RFU, SLMO2 / Fold change vs veh, SLMO2 / RFU, ABCC4 / Fold change vs veh, ABCC4 / RFU, LOC101060439 /// RAP1B / Fold change vs veh, LOC101060439 /// RAP1B / RFU, RFX7 / Fold change vs veh, RFX7 / RFU, GTPBP10 / Fold change vs veh, GTPBP10 / RFU, CNEP1R1 / Fold change vs veh, CNEP1R1 / RFU, BIVM-ERCC5 /// ERCC5 / Fold change vs veh, BIVM-ERCC5 /// ERCC5 / RFU, ILF3 / Fold change vs veh, ILF3 / RFU 11762660_at / Fold change /veh 11762660_at / RFU VCAN (11757783_s_at) / Fold change /veh VCAN (11757783_s_at) / RFU DDX43 (11728927_at) / Fold change /veh DDX43 (11728927_at) / RFU KRT8 (11758188_x_at) / Fold change /veh KRT8 (11758188_x_at) / RFU NKD1 (11759106_at) / Fold change /veh NKD1 (11759106_at) / RFU SRD5A1 (11742802_a_at) / Fold change /veh SRD5A1 (11742802_a_at) / RFU TPSAB1 /// TPSB2 (11721975_s_at) / Fold change /veh TPSAB1 /// TPSB2 (11721975_s_at) / RFU GSTM3 (11746129_a_at) / Fold change /veh GSTM3 (11746129_a_at) / RFU IL23R (11737362_x_at) / Fold change /veh IL23R (11737362_x_at) / RFU TMEM51 (11727254_a_at) / Fold change /veh TMEM51 (11727254_a_at) / RFU PIWIL2 (11732686_x_at) / Fold change /veh PIWIL2 (11732686_x_at) / RFU ORM1 (11744905_x_at) / Fold change /veh ORM1 (11744905_x_at) / RFU CCDC152 (11743942_at) / Fold change /veh CCDC152 (11743942_at) / RFU ECM1 (11717891_a_at) / Fold change /veh ECM1 (11717891_a_at) / RFU IL23R (11748794_a_at) / Fold change /veh IL23R (11748794_a_at) / RFU TNFAIP8L3 (11732012_x_at) / Fold change /veh TNFAIP8L3 (11732012_x_at) / RFU MBOAT4 (11741988_at) / Fold change /veh MBOAT4 (11741988_at) / RFU 11764193_at / Fold change /veh 11764193_at / RFU TMEM53 (11763286_at) / Fold change /veh TMEM53 (11763286_at) / RFU MAGEB2 (11727129_at) / Fold change /veh MAGEB2 (11727129_at) / RFU TMEM200A (11744735_a_at) / Fold change /veh TMEM200A (11744735_a_at) / RFU CCDC152 (11751479_a_at) / Fold change /veh CCDC152 (11751479_a_at) / RFU FAM211A (11726209_a_at) / Fold change /veh FAM211A (11726209_a_at) / RFU RGS16 (11746705_a_at) / Fold change /veh RGS16 (11746705_a_at) / RFU VCAN (11755009_s_at) / Fold change /veh VCAN (11755009_s_at) / RFU RHOB (11743442_s_at) / Fold change /veh RHOB (11743442_s_at) / RFU RGS16 (11720943_a_at) / Fold change /veh RGS16 (11720943_a_at) / RFU RGS16 (11720944_at) / Fold change /veh RGS16 (11720944_at) / RFU, VPS4B / Fold change vs veh, VPS4B / RFU, CREB1 / Fold change vs veh, CREB1 / RFU, DNAJC13 / Fold change vs veh, DNAJC13 / RFU, GNAQ / Fold change vs veh, GNAQ / RFU, CDK5R1 / Fold change vs veh, CDK5R1 / RFU, ZRANB3 / Fold change vs veh, ZRANB3 / RFU, CUL4A / Fold change vs veh, CUL4A / RFU, CCNY / Fold change vs veh, CCNY / RFU, UFL1 / Fold change vs veh, UFL1 / RFU, COG3 / Fold change vs veh, COG3 / RFU, DIAPH2 / Fold change vs veh, DIAPH2 / RFU, SKA2 / Fold change vs veh, SKA2 / RFU, AFF3 / Fold change vs veh, AFF3 / RFU, LMF1 / Fold change vs veh, LMF1 / RFU, IPO11 / Fold change vs veh, IPO11 / RFU, DFFB / Fold change vs veh, DFFB / RFU, FOXP1 / Fold change vs veh, FOXP1 / RFU, CARD8 / Fold change vs veh, CARD8 / RFU, STRN3 / Fold change vs veh, STRN3 / RFU, ADK / Fold change vs veh, ADK / RFU, RASSF2 / Fold change vs veh, RASSF2 / RFU, WIPF1 / Fold change vs veh, WIPF1 / RFU, LARP1B / Fold change vs veh, LARP1B / RFU, RASA1 / Fold change vs veh, RASA1 / RFU, RB1 / Fold change vs veh, RB1 / RFU, PPFIA1 / Fold change vs veh, PPFIA1 / RFU, MAT2A / Fold change vs veh, MAT2A / RFU, CCT5 / Fold change vs veh, CCT5 / RFU, WDR92 / Fold change vs veh, WDR92 / RFU, CUX1 / Fold change vs veh, CUX1 / RFU, TTC7A / Fold change vs veh, TTC7A / RFU, TMEM135 / Fold change vs veh, TMEM135 / RFU, DEPTOR / Fold change vs veh, DEPTOR / RFU, CPM / Fold change vs veh, CPM / RFU, DNAJB6 / Fold change vs veh, DNAJB6 / RFU, CACNA2D3 / Fold change vs veh, CACNA2D3 / RFU, DTX4 / Fold change vs veh, DTX4 / RFU, TFCP2 / Fold change vs veh, TFCP2 / RFU, GMCL1 /// GMCL1P1 / Fold change vs veh, GMCL1 /// GMCL1P1 / RFU, AEBP2 / Fold change vs veh, AEBP2 / RFU, SNHG1 /// SNORD22 /// SNORD25 /// SNORD26 /// SNORD27 /// SNORD28 /// SNORD29 /// SNORD31 / Fold change vs veh, SNHG1 /// SNORD22 /// SNORD25 /// SNORD26 /// SNORD27 /// SNORD28 /// SNORD29 /// SNORD31 / Fold change (Aza/veh), C12orf56 (ProbeSet 11735607_a_at) / Fold change (ACY-1035/veh), C12orf56 (ProbeSet 11735607_a_at) / Fold change (Aza/veh), FGFR1OP (ProbeSet 11751329_s_at) / Fold change (ACY-1035/veh), FGFR1OP (ProbeSet 11751329_s_at) / Fold change (Aza/veh), VPS36 (ProbeSet 11739960_a_at) / Fold change (ACY-1035/veh), VPS36 (ProbeSet 11739960_a_at) / RFU SYPL1 (11715823_x_at) / Fold change /veh SYPL1 (11715823_x_at) / RFU IGFBP7 (11715501_s_at) / Fold change /veh IGFBP7 (11715501_s_at) / RFU REEP3 (11722064_at) / Fold change /veh REEP3 (11722064_at) / RFU IGLL1 (11728026_x_at) / Fold change /veh IGLL1 (11728026_x_at): dose or concentration left out as unconfirmed
Conditions: MV-4-11 cells, 48 hours

## Nc1ccc(-c2cccs2)cc1NC(=O)c1ccc2c(c1)cc(C1CC1)n2CCN1CCOCC1 [ACY-1035]
  RFU FAM174B (11720279_a_at): 24.40 RFU
